# Experimental data as given in patent US10472393B2, “Method for inhibiting ADAM proteases with cyclic peptides” (Cancer Research Technology Limited, priority 2007, dated 2019).
# *1 amine or outer side, *2 acyl side, *3 side chain or, on linkers, in order; H or OH if unused. Where a SMILES comes first, the peptide text is derived from it. Where no end group is shown, it is not given here. [ ]: non-standard residue; d: D form. isoSer(2S) = O=C([C@@H](O)CN[*:1])[*:2]
# Key:
# recombinant ADAM8 = molecular target: T1, recombinant ADAM8 (Mus musculus, UniProt Q05910); assay: Fluorescence assay of purified recombinant ADAM8 with fluorogenic CD23 peptide substrate; format: biochemical; details: for inhibition of ADAM8 proteolytic activity: FIG. 1B, peptides at 100 nM
# T1 sequence (Q05910 17-826): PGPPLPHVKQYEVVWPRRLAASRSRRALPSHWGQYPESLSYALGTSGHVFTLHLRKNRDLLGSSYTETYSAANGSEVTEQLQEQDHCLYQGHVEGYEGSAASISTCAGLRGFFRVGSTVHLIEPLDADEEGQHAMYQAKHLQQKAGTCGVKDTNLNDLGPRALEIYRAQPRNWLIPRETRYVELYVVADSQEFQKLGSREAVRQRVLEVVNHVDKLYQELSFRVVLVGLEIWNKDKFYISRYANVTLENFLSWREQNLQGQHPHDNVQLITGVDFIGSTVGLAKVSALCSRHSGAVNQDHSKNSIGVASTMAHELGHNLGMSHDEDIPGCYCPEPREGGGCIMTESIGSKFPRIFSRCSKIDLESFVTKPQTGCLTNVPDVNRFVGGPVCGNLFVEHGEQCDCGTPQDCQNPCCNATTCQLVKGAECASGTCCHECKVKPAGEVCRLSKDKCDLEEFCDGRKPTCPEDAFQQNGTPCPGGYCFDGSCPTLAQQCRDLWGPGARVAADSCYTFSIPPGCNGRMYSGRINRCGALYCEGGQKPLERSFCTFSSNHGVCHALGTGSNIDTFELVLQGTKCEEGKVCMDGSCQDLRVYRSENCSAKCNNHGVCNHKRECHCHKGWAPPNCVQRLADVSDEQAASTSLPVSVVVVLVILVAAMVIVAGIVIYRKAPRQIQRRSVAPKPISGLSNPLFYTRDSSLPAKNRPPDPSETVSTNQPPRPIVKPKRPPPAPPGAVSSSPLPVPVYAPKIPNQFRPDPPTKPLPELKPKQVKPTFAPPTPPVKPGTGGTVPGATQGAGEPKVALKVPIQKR
# Method: In the following example, the ability of cyclic peptides to inhibit the activity of a recombinant ADAM8 was tested in fluorescence assays using a fluorogenic ADAM8 substrate (Moss and Rasmussen, 2007).
# (§1) Activity of purified recombinant ADAM8 was assessed by using a fluorogenic CD23 peptide (Dabcyl-[…](5-FAM)-CONH2, SEQ ID NO:19) as a substrate. 50 ng substrate was incubated with 100 ng of ADAM8 in assay buffer (25 mM TrisHCl pH 7.5, 10 mM CaCl2, 150 mM NaCl) at 37° C. in the time range of 0 to 18 hours. Potential ADAM8 inhibitors were preincubated for 30 min before addition of the substrate. As a negative control, CD23 was incubated with assay buffer. For determination of ADAM10 activity, 100 ng of the recombinant ADAM10 protein (R&D systems) was used in conjunction with the fluorogenic substrate Dabcyl-LAQA(HomoPhe) RSC (Fluorescein)-NH2 (SEQ ID NO:55) in assay buffer (TrisHCl pH 9.0, 2.5 μM ZnCl2). For both assays the final volume in each well was 150 μl. Activity was measured as increase in fluorescence resulting from ADAM8/ADAM10 to cleave the quenched fluorescent substrates (λ excitation: 485 nm; λ emission: 520 nm) using a BMG Optima plate reader fluorometer.
# Mice (strain C57BL/6) = assay: Acute and chronic toxicity study in mice; format: in vivo, mouse
# Method: To test for acute and for chronic toxicity, we used dosages of 1 μg, 5 μg, and 10 μg per gram of body weight in 100 μl of injection volume. Mice (strain C57BL/6) were either injected once (acute toxicity) or weekly three-times (chronic toxicity) intraperitoneal with the dosages indicated. All mice were analysed in cohorts of n=6, and NaCl injected mice were used as controls. […] We assessed spontaneous behaviour and motor performance of the mice. […] After 4 weeks, mice were sacrificed and representative organs were dissected and assessed histologically by normal hematoxylin/eosin (HE) staining. For each cohort of mice, one representative is documented for brain (cerebellum and cortex), liver, spleen, and kidney in FIG. 13.
# [1] = tested on: mouse fibroblast (L929) cells overexpressing ADAM8; assay: Matrigel invasion assay, L929 fibroblast cells overexpressing ADAM8; format: cell-based; details: FIG. 11; peptide 5 μM
# Method: (§2) In this example, the ability of cyclic peptide to inhibit ADAM8 mediated tumour cell migration through an artificial extracellular matrix (Matrigel®) was measured in a cell invasion assay. Rat glioma C6 cells were stably transfected with full length ADAM8 cDNA [Schlomann et al, 2002]. Untransfected C6 glioma cells served as controls. 5×10^4 cells were suspended in 100 μl of culture medium in the absence or presence of peptides (100 nM) and loaded into Matrigel invasion chambers (BD Biosciences, Heidelberg, Germany), which were handled according to the supplier's manual. After 20 hours incubation time, invaded cells were fixed with methanol, stained with toluidine blue, and counted. Experiments were performed in triplets and from each well, 10 viewing fields were counted manually under the microscope. Differences between the values obtained were analysed using the Mann-Whitney U test.
# (§3) ADAM8 was overexpressed by transfection in fibroblast (L929) and glioma (C6) cell lines which show no invasive potential under untransfected conditions. When ADAM8 expressing plasmids were transfected into these cell lines, the cells became highly invasive in Matrigel Invasion assays (e.g. as described in example 5). […] Invasion is also mediated by a soluble variant of ADAM8, which is released upon activation of ADAM8 in these cells.
# ADAM8 = assay: Specificity test, ADAM catalytic/disintegrin construct, CD23 fluorescent substrate; format: biochemical; details: read-out: ADAM inhibition with P1, IC50, 10 mM CaCl2 in buffer
# Method: (§4) The maximal concentration of the inhibitor peptide was 10 μM.
# (§5) ADAM catalytic/disintegrin constructs were monitored at 5-min intervals using the indicated fluorescent substrates with excitation and emission wavelengths of 485 and 530 nm, respectively. The substrates were diluted from a 10 mM stock in DMSO to 10 μM in assay buffer containing 20 mM Tris, pH 8.0, and 6×10^−4% Brij-35. For experiments with ADAM8 only, 10 mM CaCl2 was added to the buffer. Reactions were run in a 96-well plate with either inhibitor (10 nM-10 μM) in 1% DMSO or a 1% DMSO control. Background wells contained substrate and 1% DMSO and were subtracted from all other wells. Endpoints were determined in wells containing substrate and an excess of ADAM17 for the TNF-alpha substrate and ADAM8 for the CD23 substrate. Concentrations of ADAM proteins were in the range of 2.0 nM for TACE, 10 nM for ADAM9, 5 nM for ADAM10, 10 nM for ADAM8, and 2 nM for ADAM12.
# ADAM8 DC domain = molecular target: T2, ADAM8 DC domain (Mus musculus, UniProt Q05910); assay: Adhesion of ADAM8-expressing cells to plates coated with recombinant ADAM8 DC domain; format: cell-based; details: FIG. 8; concentration used in the range of 10 nM
# T2 construct: recombinant ADAM8 disintegrin/cysteine-rich (DC) domain; Myc (C); His6 (C); made in house; host or cells: E. coli strain TOP10
# T2 sequence (Q05910 402-643 limits assumed): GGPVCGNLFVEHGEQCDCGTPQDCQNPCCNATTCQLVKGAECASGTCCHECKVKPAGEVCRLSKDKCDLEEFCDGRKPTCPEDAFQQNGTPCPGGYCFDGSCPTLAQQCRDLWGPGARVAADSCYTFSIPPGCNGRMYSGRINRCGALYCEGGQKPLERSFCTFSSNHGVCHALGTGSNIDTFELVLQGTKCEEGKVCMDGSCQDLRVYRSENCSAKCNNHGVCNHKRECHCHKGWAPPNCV
# Method: In this example, peptides synthesised as described in example 1 were used to target cell adhesion mediated by the ADAM8 DC domain. A recombinant DC domain of ADAM8 was expressed and purified from E. coli and then coated onto cell culture plates. Cells over-expressing ADAM8 were then allowed to bind to the ADAM8 DC domain on the plates.
# 96-well plates were coated with 50 μg/ml of recombinant ADAM8 DC protein in PBS at 4° C. for 16 h. To express the recombinant DC domain of ADAM8, the cDNA fragment encoding the A8 DC domain was generated by PCR using Platinum™ Pfx polymerase (Invitrogen) with the following primers: DCE-A8f, 5′-GGTGGCCCTGTGTGTGGAAAC-3′ (SEQ ID NO:17); DCE-A8r, 5′-TACACAGTTGGGTGGTGCCCA-3′ (SEQ ID NO:18). The resulting cDNA fragment was cloned into the bacterial expression vector pTrcHis2 (Invitrogen) containing a C-terminal Myc and His6 tag. This vector was transformed into E. coli strain TOP10 (Invitrogen). Recombinant protein expression was induced with 1 mM isopropyl-1-thio-D-galactopyranoside for 5 h to overnight. […]
# After application of the recombinant protein and blocking with bovine serum albumin for 1 h, 10^5 cells in PBS or medium (with 5% FCS) were seeded onto the plates. […] After 1 h incubation at 37 C, the wells were rinsed 3× with PBS, and the remaining cells were quantified by counting 10 randomly chosen viewing fields (100-fold magnification). […]
# ADAM10 = assay: Specificity test, ADAM catalytic/disintegrin construct, LAQA fluorescent substrate; format: biochemical; details: maximal concentration 10 μM
# Method: as §4, §5
# ADAM12 = assay: as above; format: biochemical; details: maximal concentration 10 μM
# Method: as §4, §5
# ADAM17 (TACE) = assay: as above; format: biochemical; details: maximal concentration 10 μM
# Method: as §4, §5
# [2] = tested on: C6 glioma cells overexpressing ADAM8; assay: Matrigel invasion assay, C6 glioma cells overexpressing ADAM8; format: cell-based, rat
# Method: as §2, §3
# recombinant ADAM10 = molecular target: T3, recombinant ADAM10 (Homo sapiens, UniProt O14672); assay: Fluorescence assay of recombinant ADAM10 with fluorogenic LAQA peptide substrate; format: biochemical; details: FIG. 2, peptides at 100 nM
# T3 construct: purchased R&D systems
# T3 sequence (O14672 214-748): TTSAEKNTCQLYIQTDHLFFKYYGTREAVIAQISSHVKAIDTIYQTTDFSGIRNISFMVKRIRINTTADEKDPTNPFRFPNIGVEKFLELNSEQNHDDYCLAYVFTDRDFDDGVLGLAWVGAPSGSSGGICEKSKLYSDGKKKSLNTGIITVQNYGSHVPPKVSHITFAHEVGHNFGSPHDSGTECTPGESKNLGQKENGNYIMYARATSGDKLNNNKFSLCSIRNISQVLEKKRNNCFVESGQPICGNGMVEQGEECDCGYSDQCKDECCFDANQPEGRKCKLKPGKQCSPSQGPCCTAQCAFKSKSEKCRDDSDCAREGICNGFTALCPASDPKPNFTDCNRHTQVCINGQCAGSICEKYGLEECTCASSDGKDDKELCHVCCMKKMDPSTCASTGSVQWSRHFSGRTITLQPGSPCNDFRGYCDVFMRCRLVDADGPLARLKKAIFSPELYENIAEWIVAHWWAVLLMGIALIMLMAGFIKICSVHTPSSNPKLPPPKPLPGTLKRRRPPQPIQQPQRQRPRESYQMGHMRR
# Method: as §1
# ADAM9 = assay: Specificity test, ADAM catalytic/disintegrin construct, TNF peptide fluorescent substrate; format: biochemical; details: maximal concentration 10 μM
# Method: as §4, §5
Compound,"IC50 (recombinant ADAM8; FIG. 1A, CD23 as substrate, read-out: IC50 for the inhibition of ADAM8)",inhibition of ADAM8 proteolytic activity (recombinant ADAM8; CD23 substrate),"spontaneous behaviour and motor performance (Mice (strain C57BL/6); 1, 5, 10 μg per gram body weight i.p., once or weekly three-times, 4 weeks)","survival and obvious abnormalities (Mice (strain C57BL/6); 1, 5, 10 μg per gram body weight i.p., once or weekly three-times, 4 weeks observation)","histology (HE staining) of brain, liver, spleen, kidney (Mice (strain C57BL/6); FIG. 13, after 4 weeks)",ADAM-8 mediated cell invasion [1],"concentration dependence of ADAM8 inhibition (recombinant ADAM8; FIG. 1C, 50-200 nM, CD23 substrate)",IC50 (ADAM8),inhibition of cell adhesion mediated by ADAM8 DC domain (ADAM8 DC domain),ADAM inhibition with P1 (ADAM10),ADAM inhibition with P1 (ADAM12),ADAM inhibition with P1 (ADAM17 (TACE)),"tumour cell invasion in ADAM8 expressing cells ([2]; FIG. 4, Example 5, 20 hours)","cell invasion, dose dependence ([2]; FIG. 10, Example 7)","ADAM-8 mediated cell invasion ([2]; FIG. 12, peptide 5 μM)",inhibition of ADAM10 (recombinant ADAM10),ADAM inhibition with P1 (ADAM9)
"CNC(=O)[C@H](Cc1ccccc1)NC(=O)[C@H](CC(C)C)[C@H](CSc1cccs1)C(=O)NO [BB-94, batimastat, reference compound]",~50 nM,–,–,–,–,–,–,–,–,–,–,–,–,–,–,–,–
H-RLSKDK-OH (not fully specified (bridges)) [Peptide P4],–,little effect on ADAM8 activity,–,–,–,–,–,–,–,–,–,–,–,–,–,–,–
"CC(C)C[C@@H]1NC(=O)[C@H](CCCNC(=N)N)NC(=O)[C@H](CCCCN)NC(=O)[C@H](CC(=O)O)NC(=O)[C@H](CCCCN)NC(=O)[C@@H](O)CNC1=O [Peptide P1, c(RLsKDK)] (cyclo(RL[isoSer(2S)]KDK))",–,showed the most marked inhibition,not able to detect any differences in behaviour,all mice were alive and did not show any obvious abnormalities,did not show any evidence of toxicity,significantly blocked,concentration-dependant inhibition,100 nM,very potent in the inhibition of cell adhesion,No inh. at 10 μM,No inh. at 10 μM,No inh. at 10 μM,dramatically reduced tumour cell invasion,blocks cell invasion in a dose-dependent manner,significantly blocked,little inhibition,No inh. at 10 μM
